Reference: the supplement of paper PMC10331698
± gives the standard deviation of the averaged measurements.

Legend:
Experiment in all cases: level (log10 ratio to DMSO vehicle control); higher = higher biomarker level / cell amount than vehicle control
Settings in all cases: in DMSO
[1] = compound: O=S(=O)(O)C(F)(F)C(F)(F)C(F)(F)C(F)(F)F [Perfluorobutanesulfonic acid]
Protocol: (§1)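 BioMAP Diversity Plus panel of 12 human primary cell co-culture systems (3C, 4H, LPS, SAg, BT, BF4T, BE3C, CASM3C, HDF3CGF, KF3CT, MyoF, Mphg). Compounds were added 1 h before stimulation and left for 24 h (MyoF 48 h; BT 72 h for soluble read-outs or 6 d for IgG). Biomarkers were read by ELISA, cytotoxicity by SRB, PBMC viability and proliferation by Alamar Blue. Each well value was divided by the mean of 8 DMSO control wells on the same plate and log10 transformed; duplicate blinded samples were tested at 4 concentrations.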

[2] = compound: O=P(O)(O)CCC(F)(F)C(F)(F)C(F)(F)C(F)(F)C(F)(F)C(F)(F)C(F)(F)C(F)(F)F [((Perfluorooctyl)ethyl)phosphonic acid]
Protocol: as §1

[3] = compound: FC(F)(F)C(F)(F)C(F)(F)C(F)(F)C(F)(F)C(F)(F)C(F)(F)CCI [1-Iodo-1H,1H,2H,2H-perfluorononane]
Protocol: as §1

[4] = compound: CC(C)(C)C(=O)CC(=O)C(F)(F)C(F)(F)C(F)(F)F [(Heptafluorobutanoyl)pivaloylmethane]
Protocol: as §1

1-(Perfluorohexyl)octane = compound: CCCCCCCCC(F)(F)C(F)(F)C(F)(F)C(F)(F)C(F)(F)C(F)(F)F [1-(Perfluorohexyl)octane]
Protocol: as §1

Perfluorooctanamidine = compound: N=C(N)C(F)(F)C(F)(F)C(F)(F)C(F)(F)C(F)(F)C(F)(F)C(F)(F)F [Perfluorooctanamidine]
Protocol: as §1

Perfluorooctanamide = compound: NC(=O)C(F)(F)C(F)(F)C(F)(F)C(F)(F)C(F)(F)C(F)(F)C(F)(F)F [Perfluorooctanamide]
Protocol: as §1

Test System	level (log10) ([1]; 6700 nM)	level (log10) ([1]; 20000 nM)	level (log10) ([1]; 60000 nM)	level (log10) ([2]; 6700 nM)	level (log10) ([2]; 20000 nM)	level (log10) ([2]; 60000 nM)	level (log10) ([3]; 6700 nM)	level (log10) ([3]; 20000 nM)	level (log10) ([4]; 6700 nM)	level (log10) ([4]; 20000 nM)	level (log10) ([4]; 60000 nM)	level (log10) (1-(Perfluorohexyl)octane; 6700 nM)	level (log10) (1-(Perfluorohexyl)octane; 20000 nM)	level (log10) (Perfluorooctanamidine; 6700 nM)	level (log10) (Perfluorooctanamidine; 20000 nM)	level (log10) (Perfluorooctanamidine; 60000 nM)	level (log10) (Perfluorooctanamide; 6700 nM)	level (log10) (Perfluorooctanamide; 20000 nM)	level (log10) (Perfluorooctanamide; 60000 nM)
3C:CCL2/MCP-1	0.0025 ± 0.05	0.0015 ± 0.021	0.0355 ± 0.043	0.0005 ± 0.0092	-0.0115 ± 0.0078	-0.0085 ± 0.06	-0.005	0.019 ± 0.011	-0.0035 ± 0.0021	-0.007 ± 0.018	0.0015 ± 0.043	-0.008 ± 0.0014	0.0205 ± 0.023	0.0185 ± 0.012	0.0085 ± 0.011	0.062	0.0085 ± 0.028	-0.01 ± 0.0014	0.0105 ± 0.054
3C:CD54/ICAM-1	-0.008 ± 0.0014	0.0035 ± 0.0021	0.0015 ± 0.0021	-0.012 ± 0.014	-0.0185 ± 0.012	-0.021 ± 0.0085	-0.0115 ± 0.00071	0.0025 ± 0.016	-0.0015 ± 0.019	-0.0095 ± 0.005	0.03 ± 0.011	0.0025 ± 0.013	0.0165 ± 0.005	-0.0065 ± 0.0035	-0.038 ± 0.013	-0.049	-0.012 ± 0.011	-0.003 ± 0.013	0.0335 ± 0.012
3C:CD62E/E-Selectin	-0.0165 ± 0.022	-0.008 ± 0.021	0.0045 ± 0.021	-0.011 ± 0.025	-0.032 ± 0.021	-0.056 ± 0.011	-0.0135 ± 0.0035	-0.028 ± 0.014	-0.0155 ± 0.0092	-0.022 ± 0.0099	-0.003 ± 0.017	-0.0065 ± 0.011	-0.02 ± 0.0071	-0.0045 ± 0.023	-0.005 ± 0.027	-0.039	-0.009 ± 0.013	-0.0115 ± 0.0078	0.004 ± 0.025
